The text below walks through data of ChEMBL document CHEMBL1139202, “Inhibition of mycobacterial arylamine N-acetyltransferase contributes to anti-mycobacterial activity of Warburgia salutaris” (Bioorg Med Chem, 2007).

The structures appear in SMILES notation. Activity calls are given as the source filed them. The rule behind the calls is not given here.

Test [1] has as its target T1, Arylamine N-acetyltransferase (Mycolicibacterium smegmatis, UniProt O86309).
T1 sequence (O86309 whole entry): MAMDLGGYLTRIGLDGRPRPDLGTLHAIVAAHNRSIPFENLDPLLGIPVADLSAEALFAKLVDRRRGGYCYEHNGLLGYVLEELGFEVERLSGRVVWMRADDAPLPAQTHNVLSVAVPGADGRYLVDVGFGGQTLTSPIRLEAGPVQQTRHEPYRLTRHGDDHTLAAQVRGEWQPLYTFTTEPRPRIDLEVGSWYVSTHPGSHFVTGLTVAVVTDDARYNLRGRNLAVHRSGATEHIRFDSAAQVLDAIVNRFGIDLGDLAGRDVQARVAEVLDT
Briefly: Inhibition of Mycobacterium smegmatis recombinant NAT expressed in Escherichia coli BL21 at 0.5 mg/mL.

For test [2], the system named is Mycobacterium tuberculosis. Briefly: Growth inhibition of Mycobacterium tuberculosis H37Rv at 0.05 ug/mL after 21 days. The test is classed as functional, organism-based.

Turning to `CC(=O)O[C@@H]1C=C2C(=O)O[C@@H](O)[C@]2(O)[C@@]2(C)CCCC(C)(C)[C@H]12`, the inhibition (in general, how much of the control response was suppressed) at 500 µg/mL in test [1] was found to be 35%. For the compound `NNC(=O)c1ccncc1`, the result in test [2] was Active.
